Patent US10040748B2, “4-hydroxybutyric acid analogs” (Concert Pharmaceuticals, Inc., priority 2011, dated 2018)
Counter-ions that a name gives are not always drawn.

Legend:
[1] = In vivo pharmacokinetic studies in rats (IV and PO dosing, plasma); conditions: rat; for AUC0-∞ / CL / Vz / Cmax / Tmax: mean of N=4; for % F: 200 mg/kg PO vs IV, printed in AUC0-∞ column
Method: The pharmacokinetics of exemplary compounds was determined by comparison with 4-hydroxybutyric acid by dosing the compounds in rats according to the following study design and sampling procedure.

[2] = humans; cited from earlier work
[3] = 200 mg/kg IV, mean of N=4, Cmin at 2 hr
[4] = 200 mg/kg IV, mean of N=4, calculated up to 2 hr
[5] = 200 mg/kg PO, mean of N=4, Cmin at 4 hr
[6] = 200 mg/kg PO, mean of N=4, calculated up to 4 hr

Compound | AUC0-∞ ([1]; 200 mg/kg IV) [µg·h/mL] | CL ([1]; 200 mg/kg IV) [mL/min/kg] | Vz ([1]; 200 mg/kg IV) [L/kg] | Cmin [1, 3] [ng/mL] | t1/2 [1, 4] [min] | % F [1] [%] | AUC0-∞ ([1]; 200 mg/kg PO) [µg·h/mL] | Cmax ([1]; 200 mg/kg PO) [ng/mL] | Tmax ([1]; 200 mg/kg PO) [min] | Cmin [1, 5] [ng/mL] | t1/2 [1, 6] [min] | AUC0-∞ fold change (printed in brackets under the PO AUC) ([1]; 200 mg/kg PO, reference not given, apparently vs 4-hydroxybutyric acid, sodium salt) | concentration at 2 hr ([1]; plasma, 200 mg/kg IV, mean of N=4, Cmin at 2 hr) [ng/mL] | half life [2] [min] | pharmacokinetics relative to 4-hydroxybutyric acid, sodium salt ([1]; 200 mg/kg, comparison of AUC0-∞ and t1/2)
[2H]C([2H])(CCO)C(=O)[O-].[Na+] [Sodium 2,2-d2-4-Hydroxybutanoate] | 476 | 7 | 0.2 | 19000 | 19.8 | 41 | 193 | 153000 | 37.8 | 1000 | 35.4 | (+1.1X) |  |  | 
O=C(O)CCCO [4-hydroxybutyric acid, sodium salt, sodium salt of 4-hydroxybutyric acid, reference compound] |  |  |  |  |  |  |  |  |  | 2000 |  |  | 8000 | 30 to 60 | 
[2H]C([2H])(O)CC([2H])([2H])C(=O)[O-].[Na+] [IV-b, sodium salt, Sodium 2,2,4,4-d4-4-hydroxybutanoate] | 651 | 5 | 0.3 | 76000 | 37.8 | 40 | 260 | 151000 | 37.8 | 5000 | 56.4 |  |  |  | considerably increased
